Test results from patent US20240238423A9, “TETRAHYDROISOQUINOLINE HETEROBIFUNCTIONAL BCL-XL DEGRADERS” (Treeline Biosciences, Inc., priority 2022, published 2024).
Read-outs that look alike come from different tables or passages of the source.

Target: T1, Human BCL-XL protein (N-terminal HiBiT tagged BCL-XL in HT1080 cells) (Homo sapiens, UniProt Q07817)
T1 construct: expressed in transfected cells; host or cells: HT-1080 (ATCC CCL-121), stably transduced with lentivirus pLV-UBC-N-HiBiT-BCL-XL-PGK-puro and selected with puromycin
T1 sequence (Q07817 whole entry): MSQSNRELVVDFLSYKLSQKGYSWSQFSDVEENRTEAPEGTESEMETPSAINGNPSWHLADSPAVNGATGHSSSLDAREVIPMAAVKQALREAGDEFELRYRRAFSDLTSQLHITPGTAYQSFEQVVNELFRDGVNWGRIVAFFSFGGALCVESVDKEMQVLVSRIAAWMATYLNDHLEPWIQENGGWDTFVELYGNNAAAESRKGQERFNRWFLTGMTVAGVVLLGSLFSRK
Test: HiBiT based degradation assay
Format: cell-based
Conditions: HT1080 cells expressing HiBiT-BCL-XL; for Ymin (6 h) / Ymin (24 h): BCL-XL degradation normalized with DMSO control; for DC50: BCL-XL degradation
Outline: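 This HiBiT degradation assay measured loss of BCL-XL in HT1080 cells that stably express an N-terminal HiBiT-BCL-XL fusion delivered by lentivirus. Cells were added to compound-spotted 384-well plates, and luminescence was read on a PHERAstar FSX reader. Signal was expressed relative to DMSO controls, curves were fitted by four-parameter logistic regression, and for hook-shaped curves the Ymin point served as the bottom plateau when calculating EC50.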

Row | Ymin (6 h) | Ymin (24 h) | DC50 (6 h, read-out: EC50 (6 h)) [nM] | DC50 (24 h, read-out: EC50 (24 h)) [nM] | SMILES
1 | B (50% ≤ Ymin < 70%) | A (Ymin < 50%) | < 100 | < 100 | Cc1c(Oc2ccc(CCCN3CCN(c4ccc5c(C6CCC(=O)NC6=O)nn(C)c5c4)CC3)cc2)cccc1-c1ccc(N2CCc3cccc(C(=O)Nc4nc5ccccc5s4)c3C2)nc1C(=O)O (stereo not drawn) [Compound 149, 6-(8-(benzo[d]thiazol-2-ylcarbamoyl)-3,4-dihydroisoquinolin-2(1H)-yl)-3-(3-(4-(3-(4-(3-(2,6-dioxopiperidin-3-yl)-1-methyl-1H-indazol-6-yl)piperazin-1-yl)propyl)phenoxy)-2-methylphenyl)picolinic acid]
2 |  | B (50% ≤ Ymin < 70%) |  | < 100 | Cc1c(O[C@H]2CC[C@@H](CCC(=O)N3CCN(c4ccc5c(C6CCC(=O)NC6=O)nn(C)c5c4)CC3)CC2)cccc1-c1ccc(N2CCc3cccc(C(=O)Nc4nc5ccccc5s4)c3C2)nc1C(=O)O (stereo partly drawn) [Compound 138b, 6-(8-(benzo[d]thiazol-2-ylcarbamoyl)-3,4-dihydroisoquinolin-2(1H)-yl)-3-(3-(((1s,4s)-4-(3-(4-(3-(2,6-dioxopiperidin-3-yl)-1-methyl-1H-indazol-6-yl)piperazin-1-yl)-3-oxopropyl)cyclohexyl)oxy)-2-methylphenyl)picolinic acid]
3 |  | A (Ymin < 50%) |  | < 100 | Cc1c(OCCC2CCN(CCN3CCC(c4ccc5c(C6CCC(=O)NC6=O)nn(C)c5c4)CC3)CC2)cccc1-c1ccc(N2CCc3cccc(C(=O)Nc4nc5ccccc5s4)c3C2)nc1C(=O)O (stereo not drawn) [Compound 248, 6-[8-(1,3-benzothiazol-2-ylcarbamoyl)-3,4-dihydro-1H-isoquinolin-2-yl]-3-[3-[2-[1-[2-[4-[3-(2,6-dioxo-3-piperidyl)-1-methyl-indazol-6-yl]-1-piperidyl]ethyl]-4-piperidyl]ethoxy]-2-methyl-phenyl]pyridine-2-carboxylic acid]
4 | A (Ymin < 50%) | A (Ymin < 50%) | < 100 | < 100 | Cc1c(CCCCN2CCN(CC(=O)Nc3ccc4c(C5CCC(=O)NC5=O)nn(C)c4c3)CC2)cccc1-c1ccc(N2CCc3cccc(C(=O)Nc4nc5ccccc5s4)c3C2)nc1C(=O)O (stereo not drawn) [Compound 130, 6-[8-(1,3-Benzothiazol-2-ylcarbamoyl)-3,4-dihydro-1H-isoquinolin-2-yl]-3-[3-[4-[4-[2-[[3-(2,6-dioxo-3-piperidyl)-1-methyl-indazol-6-yl]amino]-2-oxo-ethyl]piperazin-1-yl]butyl]-2-methyl-phenyl]pyridine-2-carboxylic acid]
5 |  | A (Ymin < 50%) |  | < 100 | Cc1c(OCC[C@@H]2CCC3(CCN(CC(=O)Nc4ccc5c(C6CCC(=O)NC6=O)nn(C)c5c4)CC3)C2)cccc1-c1ccc(N2CCc3cccc(C(=O)Nc4nc5ccccc5s4)c3C2)nc1C(=O)O (single isomer, unassigned) [Compound 272b, 6-(8-(benzo[d]thiazol-2-ylcarbamoyl)-3,4-dihydro-isoquinolin-2(1 h)-yl)-3-(3-(2-((2r)-8-(2-((3-(2,6-dioxopiperidin-3-yl)-1-methyl-1 h-indazol-6-yl)amino)-2-oxoethyl)-8-azaspiro[4.5]decan-2-yl)ethoxy)-2-methylphenyl)picolinic acid]
6 |  | B (50% ≤ Ymin < 70%) |  | < 100 | Cc1c(O[C@H]2CC[C@H](CC(F)(F)CN3CCN(c4cccc5c(C6CCC(=O)NC6=O)nn(C)c45)CC3)CC2)cccc1-c1ccc(N2CCc3cccc(C(=O)Nc4nc5ccccc5s4)c3C2)nc1C(=O)O (stereo partly drawn) [Compound 168a, 6-(8-(benzo[d]thiazol-2-ylcarbamoyl)-3,4-dihydroisoquinolin-2(1H)-yl)-3-(3-(((1r,4r)-4-(3-(4-(3-(2,6-dioxopiperidin-3-yl)-1-methyl-1H-indazol-7-yl)piperazin-1-yl)-2,2-difluoropropyl)cyclohexyl)oxy)-2-methylphenyl)picolinic acid]
7 | B (50% ≤ Ymin < 70%) | A (Ymin < 50%) | 100 to 1000 | < 100 | Cc1c(OCCCN2CCN(CC(=O)N3CCN(c4cccc5c(C6CCC(=O)NC6=O)nn(C)c45)CC3)CC2)cccc1-c1ccc(N2CCc3cccc(C(=O)Nc4nc5ccccc5s4)c3C2)nc1C(=O)O (stereo not drawn) [Compound 151, 6-(8-(Benzo[d]thiazol-2-ylcarbamoyl)-3,4-dihydroisoquinolin-2(1H)-yl)-3-(3-(3-(4-(2-(4-(3-(2,6-dioxopiperidin-3-yl)-1-methyl-1H-indazol-7-yl)piperazin-1-yl)-2-oxoethyl)piperazin-1-yl)propoxy)-2-methylphenyl)picolinic acid]
8 |  | A (Ymin < 50%) |  | < 100 | Cc1c(O[C@H]2CC[C@H](CCCCN3CCN(c4ccc5c(C6CCC(=O)NC6=O)nn(C)c5c4)C[C@H]3C(F)(F)F)CC2)cccc1-c1ccc(N2CCc3cccc(C(=O)Nc4nc5ccccc5s4)c3C2)nc1C(=O)O (stereo partly drawn) [Compound 346b, 6-(8-(benzo[d]thiazol-2-ylcarbamoyl)-3,4-dihydroisoquinolin-2(1H)-yl)-3-(3-(((1r,4r)-4-(4-((2S)-4-(3-(2,6-dioxopiperidin-3-yl)-1-methyl-1H-indazol-6-yl)-2-(trifluoromethyl)piperazin-1-yl)butyl)cyclohexyl)oxy)-2-methylphenyl)picolinic acid]
9 |  | A (Ymin < 50%) |  | < 100 | Cc1c(O[C@H]2CC[C@@H](CCCN3CCN(c4ccc5c(C6CCC(=O)NC6=O)nn(C)c5c4)CC3)CC2)cccc1-c1ccc(N2CCc3cccc(C(=O)Nc4nc5ccccc5s4)c3C2)nc1C(=O)O (stereo partly drawn) [Compound 148b, 6-(8-(benzo[d]thiazol-2-ylcarbamoyl)-3,4-dihydroisoquinolin-2(1H)-yl)-3-(3-(((1r,4s)-4-(3-(4-(3-(2,6-dioxopiperidin-3-yl)-1-methyl-1H-indazol-6-yl)piperazin-1-yl)propyl)cyclohexyl)oxy)-2-methylphenyl)picolinic acid]
10 |  | A (Ymin < 50%) |  | < 100 | Cc1c(O[C@H]2CC[C@H](CCCN3CCN(c4ccc5c(C6CCC(=O)NC6=O)nn(C)c5c4)[C@H](C)C3)CC2)cccc1-c1ccc(N2CCc3cccc(C(=O)Nc4nc5ccccc5s4)c3C2)nc1C(=O)O (stereo partly drawn) [Compound 278a, 6-(8-(benzo[d]thiazol-2-ylcarbamoyl)-3,4-dihydroisoquinolin-2(1H)-yl)-3-(3-(((1S,4r)-4-(3-((3R)-4-(3-(2,6-dioxopiperidin-3-yl)-1-methyl-1H-indazol-6-yl)-3-methylpiperazin-1-yl)propyl)cyclohexyl)oxy)-2-methylphenyl)picolinic acid]
11 | B (50% ≤ Ymin < 70%) | B (50% ≤ Ymin < 70%) | 100 to 1000 | 100 to 1000 | Cc1c(OCCOC2CCN(CC(=O)Nc3cccc4c(C5CCC(=O)NC5=O)nn(C)c34)CC2)cccc1-c1ccc(N2CCc3cccc(C(=O)Nc4nc5ccccc5s4)c3C2)nc1C(=O)O (stereo not drawn) [Compound 194, 6-[8-(1,3-benzothiazol-2-ylcarbamoyl)-3,4-dihydro-1H-isoquinolin-2-yl]-3-[3-[2-[[1-[2-[[3-(2,6-dioxo-3-piperidyl)-1-methyl-indazol-7-yl]amino]-2-oxo-ethyl]-4-piperidyl]oxy]ethoxy]-2-methyl-phenyl]pyridine-2-carboxylic acid]
12 | B (50% ≤ Ymin < 70%) | A (Ymin < 50%) | 1000 to 10000 | 1000 to 10000 | Cc1c(Oc2ccc(CC(F)(F)CN3CCN(c4cccc5c(C6CCC(=O)NC6=O)nn(C)c45)CC3)cc2)cccc1-c1ccc(N2CCc3cccc(C(=O)Nc4nc5ccccc5s4)c3C2)nc1C(=O)O (stereo not drawn) [Compound 201, 6-[8-(1,3-benzothiazol-2-ylcarbamoyl)-3,4-dihydro-1H-isoquinolin-2-yl]-3-[3-[4-[3-[4-[3-(2,6-dioxo-3-piperidyl)-1-methyl-indazol-7-yl]piperazin-1-yl]-2,2-difluoro-propyl]phenoxy]-2-methyl-phenyl]pyridine-2-carboxylic acid]
13 |  | A (Ymin < 50%) |  | < 100 | Cc1c(OCC[C@@H]2CC23CCN(CC(=O)Nc2ccc4c(C5CCC(=O)NC5=O)nn(C)c4c2)CC3)cccc1-c1ccc(N2CCc3cccc(C(=O)Nc4nc5ccccc5s4)c3C2)nc1C(=O)O (single isomer, unassigned) [Compound 289a]
14 | B (50% ≤ Ymin < 70%) | A (Ymin < 50%) | < 100 | < 100 | Cc1c(OCCCCCCCCCN2CCN(c3ccc4c(C5CCC(=O)NC5=O)nn(C)c4c3)CC2)cccc1-c1ccc(N2CCc3cccc(C(=O)Nc4nc5ccccc5s4)c3C2)nc1C(=O)O (stereo not drawn) [Compound 155, 6-[8-(1,3-benzothiazol-2-ylcarbamoyl)-3,4-dihydro-1H-isoquinolin-2-yl]-3-[3-[9-[4-[3-(2,6-dioxo-3-piperidyl)-1-methyl-indazol-6-yl]piperazin-1-yl]nonoxy]-2-methyl-phenyl]pyridine-2-carboxylic acid]
15 |  | B (50% ≤ Ymin < 70%) |  | 100 to 1000 | Cc1c(O[C@H]2CC[C@H](CC(F)(F)C(=O)N3CCN(c4cccc5c(C6CCC(=O)NC6=O)nn(C)c45)CC3)CC2)cccc1-c1ccc(N2CCc3cccc(C(=O)Nc4nc5ccccc5s4)c3C2)nc1C(=O)O (stereo partly drawn) [Compound 171a, 6-(8-(benzo[d]thiazol-2-ylcarbamoyl)-3,4-dihydroisoquinolin-2(1H)-yl)-3-(3-(((1r,4r)-4-(3-(4-(3-(2,6-dioxopiperidin-3-yl)-1-methyl-1H-indazol-7-yl)piperazin-1-yl)-2,2-difluoro-3-oxopropyl)cyclohexyl)oxy)-2-methylphenyl)picolinic acid]
